How the values were obtained:
[1] = test system: T1, C. trachomatis L2/434/Bu expressing GFP (CTL2-GFP); assay: microbe, parasite or virus in culture; set-up: C. trachomatis total inclusion area by high-content imaging, normalised to DMSO; conditions: Chlamydia trachomatis, HeLa, 28.5 h; total inclusion area; read-out: % of control remaining
T1 construct: L2/434/Bu GFP intracellular growth in HeLa cells
From the text: We screened a library of 36,785 small molecules displaying drug-like properties and covering a wide chemical space (Fig 1A and S2A Data). In this process, we also complemented the assay described above with an imaging-based readout (Fig 1B). After measurements of bulk GFP and resorufin fluorescence, cells were fixed, stained with the DNA dye Hoechst, and imaged at a high-content imaging platform to detect chlamydial inclusions (GFP) and host cell nuclei (Hoechst). The total area and number of inclusions in individual wells and the number of nuclei then served as additional proxies for chlamydial growth and host cell viability. […] MICs were calculated as described above.

[2] = test system: T2, CTL2-GFP (C. trachomatis L2/434/Bu, GFP-expressing); assay: microbe, parasite or virus in culture; set-up: Intracellular C. trachomatis growth in HeLa cells, bulk GFP fluorescence relative to DMSO; conditions: Chlamydia trachomatis, HeLa, 28.5 h; bulk GFP, mean of 2; read-out: % of control remaining
T2 construct: L2/434/Bu, GFP-expressing
Protocol: MICs were calculated as described above.

in vitro [3] = assay: in vitro; set-up: Viability of infected HeLa host cells, resazurin conversion, bulk resorufin fluorescence relative to DMSO; conditions: human, hela cells; bulk resorufin, mean of 2
in vitro [4] = conditions: human, hela cells, % viability

SMILES | activity at 1 µM [1] [%] | activity at 5 µM [1] [%] | activity at 10 µM [1] [%] | activity at 1 µM [2] [%] | activity at 5 µM [2] [%] | activity at 10 µM [2] [%] | viability at 28.5 h, 1 µM (in vitro [3]) [%] | viability at 28.5 h, 5 µM (in vitro [3]) [%] | viability at 28.5 h, 10 µM (in vitro [3]) [%] | viability at 28.5 h, 10 µM (in vitro [4]) [%]
CCc1nnc(NS(=O)(=O)c2ccc(NC(=S)NC(=O)c3ccco3)cc2)s1 [CBK018917] | 79.7 | 57 | 24.2 | 117 | 56.1 | 18.8 | 100 | 94.7 | 115 | 
CCC(CN1CCCC1)NC(=O)Cc1ccc(OC)c(C)c1 (centres unmarked) [CBK282752] | 108 | 47.2 | 26.1 | 100 | 50.3 | 19.9 | 108 | 112 | 108 | 
COc1ccc(C(=O)NNC(=O)/C=C/c2ccc(C(C)C)cc2)cc1 [CBK261697] | 121 | 97.3 | 48.1 | 111 | 98 | 43.2 | 95 | 95.5 | 94.3 | 
O=C(Nc1ncc(-c2ccccc2)s1)c1cccc([N+](=O)[O-])c1 [CBK157055] | 86.4 | 88.1 | 56.9 | 110 | 86.9 | 76.9 | 114 | 102 | 114 | 
O=C(O)/C(=N\c1cccc2ccccc12)c1ccccc1 [CBK262224] | 69.5 | 62.2 | 32.2 | 80.4 | 66.5 | 49.9 | 87.4 | 88.7 | 96 | 
CC(Oc1cccc2ccccc12)C(=S)N(C)c1ccccc1 (centres unmarked) [CBK016158] | 105 | 98.3 | 84.8 | 98.8 | 81.4 | 67.6 | 113 | 117 | 107 | 
O=C(N/N=C\c1ccc([N+](=O)[O-])o1)c1nc(-c2ccccc2)cc(-c2ccccc2)n1 [CBK261958] | 4.65 | 0.0567 | 0 | 6.03 | 1.53 | 7.08 | 90 | 91.8 | 87.8 | 
O=C(NCCc1c[nH]c2ccc(Cl)cc12)c1ccc(Cl)cc1Cl [CBK159750] | 91.9 | 68.5 | 6.32 | 88 | 40.4 | 8.46 | 95.1 | 93.9 | 98.4 | 
Cn1cncc1C(=O)NCc1ccccc1 [CBK200199] | 111 | 106 | 69.3 | 95.8 | 109 | 110 | 114 | 107 | 104 | 
CCCCC(=O)/N=C(\N)Nc1nc2ccccc2o1 [CBK287937] | 100 | 71.1 | 60.6 | 119 | 117 | 117 | 106 | 102 | 100 | 
CCCN(CCC)CCc1cccc2c1CCN2C(=O)c1cc2ccccc2s1 [CBK017871C] | 58 | 26.8 | 2.13 | 42.3 | 18.2 | 9.45 | 96.8 | 96.9 | 97.3 | 
O=C(CC1SC(Nc2ccc(O)cc2)=NC1=O)c1ccccc1 (centres unmarked) [CBK267009] | 84.6 | 35.2 | 35.5 | 65.7 | 34 | 33 | 114 | 112 | 107 | 
CN(C)[C@H]1CCC[C@@H]1C(=O)Nc1ccc(Cl)c(Cl)c1 [CBK003406] | 112 | 76.4 | 20.8 | 90.9 | 67.2 | 13 | 105 | 109 | 107 | 
O=C(NCc1ccc([N+](=O)[O-])cc1)c1cccnc1NCc1ccc2c(c1)OCO2 [CBK153436] | 65.8 | 65.9 | 38.2 | 113 | 68.2 | 25.1 | 103 | 109 | 109 | 
CC(Cc1nc(-c2nccn2C(C)C)cs1)n1cc(Cl)cn1 (centres unmarked) [CBK304251] | 109 | 55.7 | 28.6 | 125 | 70.4 | 46.9 | 90.7 | 96.5 | 92.9 | 
Cn1nnnc1-c1cccc(NC(=O)c2ccc(Oc3ccccc3)cc2)c1 [CBK297872] | 118 | 74.5 | 30.8 | 124 | 73.3 | 27.8 | 95.1 | 88.4 | 89.1 | 
Cc1cccc(N(C)S(=O)(=O)c2ccc(N3CCCNCC3)c3ccccc23)c1C [CBK004430C] | 121 | 56.7 | 8.36 | 142 | 95.8 | 45.1 | 89.7 | 84.9 | 88.8 | 
Cc1cc(Br)ccc1S(=O)(=O)N(C)c1ccc(N2CCNCC2)c2ccccc12 [CBK016170C] | 63.9 | 26.9 | 12.9 | 106 | 75.3 | 35.2 | 91.8 | 92.1 | 112 | 
CN(C(=O)Cc1ccsc1)c1nc2c(s1)CCc1c-2cnn1C [CBK281929] | 85.4 | 28.7 | 14.3 | 104 | 56.8 | 29.8 | 103 | 96 | 93.3 | 
CC(=O)Nc1ccc(S(=O)(=O)Nc2ccc(C(=O)Nc3ccc(F)cc3)cc2)cc1 [CBK050401] | 114 | 48.5 | 30 | 101 | 31.9 | 14.2 | 93.4 | 87.7 | 91.8 | 
O=C(O)c1cn(C2CC2)c2cc(N3CCN(C(=O)Cc4ccccc4Cl)CC3)c(F)cc2c1=O [CBK297136] | 145 | 74.4 | 16.8 | 153 | 90.9 | 28.4 | 88.5 | 89.1 | 93.4 | 
CC(C)(N)CNC(=O)c1cc(C(C)(C)C)nn1Cc1ccc(Cl)cc1Cl [CBK107296] | 87.7 | 54.2 | 26.9 | 115 | 76.6 | 36 | 91.1 | 95.2 | 93.8 | 
NS(=O)(=O)c1ccc(CNC(=O)c2cc(-c3ccncc3)nc3ccc(Cl)cc23)cc1 [CBK267770] |  |  |  |  |  |  |  |  |  | 101
COCCNC(=O)C(Cc1ccc(-c2ccc(S(C)(=O)=O)cc2)cc1)C1CCN(C(=O)OC(C)(C)C)CC1 (centres unmarked) [CBK173129] |  |  |  |  |  |  |  |  |  | 125
COc1ccc(N(CC(=O)Nc2cccnc2)S(=O)(=O)c2ccc(C)cc2)cc1 [CBK264033] |  |  |  |  |  |  |  |  |  | 99.6
COc1ccc(CCN2C(=O)CC(Nc3ccc(N4CCOCC4)cc3)C2=O)cc1OC (centres unmarked) [CBK266322] |  |  |  |  |  |  |  |  |  | 97.7
Cn1cncc1C(=O)N1Cc2ccccc2C1 [CBK200329] |  |  |  |  |  |  |  |  |  | 106
O=C(O)CC[n+]1c(/C=C/Nc2ccccc2)oc2ccccc21 [CBK260898B] |  |  |  |  |  |  |  |  |  | 93.3
COc1ccc2c(c1)c(=O)oc1c(CN3CCCC3)c(O)ccc12 [CBK266814] |  |  |  |  |  |  |  |  |  | 95.3
COc1ccccc1-c1cnc(N)c(N[C@@H](C)c2ccccc2)n1 [CBK063721] |  |  |  |  |  |  |  |  |  | 107

— article PMC12040169 (PLOS Biology, 2025)
